Measurements published in ChEMBL document CHEMBL1126208, “Synthesis and antileukemic activity of etoposide a-ring analogs” (Bioorg Med Chem Lett, 1992).
≈ marks a conversion by molar mass, not a printed value.

Experiments:
HCT-116 [1] = test: Compound was tested for its in vitro cytotoxicity in HCT116 cell line after 72 hours; type: functional, cell-based; conditions: Homo sapiens, HCT-116, 72 h
HCT-116 [2] = test: Compound was tested for its in vitro cytotoxicity in HCT-VP35 cell line after 72 hours; type: functional, cell-based; conditions: Homo sapiens, HCT-116, 72 h
Mus musculus [3] = test: Anti-P388 Leukemia activity determined when compound 150 mg/kg was administered ip on day 48 on mice expressed as the Long -term survivors (LTS); mice alive/total; No of mice tested=6; type: functional; conditions: route intraperitoneal
Mus musculus [4] = test: Anti-P388 Leukemia activity after 140 mg/kg/injection ip administration on days 5 and 8 expressed as percent of median survival time of drug treated mice compared to saline treated controls.; type: functional; conditions: route intraperitoneal
Mus musculus [5] = test: Anti-P388 Leukemia activity after 280 mg/kg/injection ip administration on days 5 and 8 expressed as percent of median survival time of drug treated mice compared to saline treated controls.; type: functional; conditions: route intraperitoneal
Mus musculus [6] = test: Anti-P388 Leukemia activity after 70 mg/kg/injection ip administration on days 5 and 8 expressed as percent of median survival time of drug treated mice compared to saline treated controls.; type: functional; conditions: route intraperitoneal
[7] = Ratio of IC50 of HCT-VP35 to IC50 of HCT116.; type: functional
Mus musculus [8] = test: Anti-P388 Leukemia activity determined when compound 150 mg/kg was administered ip on day 48 on mice expressed as the Long -term survivors (LTS); mice alive/total No of mice tested=6; type: functional; conditions: route intraperitoneal
Mus musculus [9] = test: Anti-P388 Leukemia activity determined when compound 120 mg/kg was administered ip on day 53 on mice expressed as the Long -term survivors (LTS); mice alive/total No of mice tested=6; type: functional; conditions: route intraperitoneal
Mus musculus [10] = test: Anti-P388 Leukemia activity determined when compound 150 mg/kg was administered ip on day 51 on mice expressed as the Long -term survivors (LTS); mice alive/total; total no of mice =6; type: functional; conditions: route intraperitoneal
Mus musculus [11] = test: Anti-P388 Leukemia activity determined when compound 150 mg/kg was administered ip on day 51 on mice expressed as the Long -term survivors (LTS); mice alive/total; type: functional; conditions: route intraperitoneal
[12] = Ratio of IC50 of HCT-VP35 to IC50 of HCT116; type: functional
Mus musculus [13] = test: Anti-P388 Leukemia activity determined when compound 120 mg/kg was administered ip on day 26 on mice expressed as the Long -term survivors (LTS); mice alive/total No of mice tested=6; type: functional; conditions: route intraperitoneal

With COc1cc([C@@H]2c3cc(O)c(O)cc3[C@@H](O[C@@H]3O[C@@H]4CO[C@@H](C)O[C@H]4[C@H](OC(=O)OCC(Cl)(Cl)Cl)[C@H]3OC(=O)OCC(Cl)(Cl)Cl)[C@H]3COC(=O)[C@H]23)cc(OC)c1OC(=O)OCC(Cl)(Cl)Cl the IC50 (HCT-116 [1]) was 10.2 µg/mL (≈ 9.27 µM), the IC50 (HCT-116 [2]) was 8.95 µg/mL (≈ 8.12 µM) and the LTS (Mus musculus [3]) was 5. It also gave a T/C (Mus musculus [4]) of 100, a T/C (Mus musculus [5]) of 105 and a T/C (Mus musculus [6]) of 100. The Ratio [7] was 0.87.

For CCCCCCCC(=O)Oc1cc2c(cc1OC(=O)CCCCCCC)[C@@H](O[C@@H]1O[C@@H]3CO[C@@H](C)O[C@H]3[C@H](O)[C@H]1O)[C@H]1COC(=O)[C@@H]1[C@@H]2c1cc(OC)c(O)c(OC)c1, the IC50 (HCT-116 [1]) was 8.03 µg/mL (≈ 9.69 µM), the IC50 (HCT-116 [2]) was 21.7 µg/mL (≈ 26.1 µM) and the LTS (Mus musculus [8]) was 5. The T/C (Mus musculus [4]) was 125, the T/C (Mus musculus [5]) was 135 and the T/C (Mus musculus [6]) was 120. The Ratio [7] was 2.7.

Work on COc1cc([C@@H]2c3cc(OC(=O)OCc4ccccc4)c(OC(=O)OCc4ccccc4)cc3[C@@H](O[C@@H]3O[C@@H]4CO[C@@H](C)O[C@H]4[C@H](O)[C@H]3O)[C@H]3COC(=O)[C@H]23)cc(OC)c1O yielded an IC50 (HCT-116 [1]) of 5.8 µg/mL (≈ 6.87 µM), an IC50 (HCT-116 [2]) of 11.8 µg/mL (≈ 14 µM) and a Ratio [7] of 2.

COc1cc([C@@H]2c3cc(O)c(O)cc3[C@@H](O[C@@H]3O[C@@H]4CO[C@@H](C)O[C@H]4[C@H](O)[C@H]3O)[C@H]3COC(=O)[C@H]23)cc(OC)c1O gave an IC50 (HCT-116 [1]) greater than 15.6 µg/mL, an IC50 (HCT-116 [2]) greater than 15.6 µg/mL and an LTS (Mus musculus [9]) of 2. For the same compound, the T/C (Mus musculus [4]) was 130, the T/C (Mus musculus [5]) was 165 and the T/C (Mus musculus [6]) was 125.

For COc1cc2c(cc1OC)[C@@H](O[C@@H]1O[C@@H]3CO[C@@H](C)O[C@H]3[C@H](O)[C@H]1O)[C@H]1COC(=O)[C@@H]1[C@@H]2c1cc(OC)c(O)c(OC)c1, the IC50 (HCT-116 [1]) was 1.61 µg/mL (≈ 2.66 µM), the IC50 (HCT-116 [2]) was 10.3 µg/mL (≈ 17.1 µM) and the LTS (Mus musculus [10]) was 4. For the same compound, the T/C (Mus musculus [4]) was 189, the T/C (Mus musculus [5]) was 228 and the T/C (Mus musculus [6]) was 189. The Ratio [7] was 6.4.

In the case of COc1cc([C@@H]2c3cc(OC(C)=O)c(OC(C)=O)cc3[C@@H](O[C@@H]3O[C@@H]4CO[C@@H](C)O[C@H]4[C@H](O)[C@H]3O)[C@H]3COC(=O)[C@H]23)cc(OC)c1O, the IC50 (HCT-116 [1]) is reported as 19.6 µg/mL (≈ 29.6 µM), the IC50 (HCT-116 [2]) is reported as 27.1 µg/mL (≈ 41 µM) and the LTS (Mus musculus [11]) is reported as 4. The T/C (Mus musculus [4]) was 167, the T/C (Mus musculus [5]) was 194 and the T/C (Mus musculus [6]) was 144. The Ratio [12] was 1.4.

For COc1cc([C@@H]2c3cc4oc(=S)oc4cc3[C@@H](O[C@@H]3O[C@@H]4CO[C@@H](C)O[C@H]4[C@H](O)[C@H]3O)[C@H]3COC(=O)[C@H]23)cc(OC)c1O, the IC50 (HCT-116 [1]) was greater than 15.6 µg/mL, the IC50 (HCT-116 [2]) was greater than 15.6 µg/mL and the LTS (Mus musculus [13]) was 6. For the same compound, the T/C (Mus musculus [4]) was 155, the T/C (Mus musculus [5]) was 170 and the T/C (Mus musculus [6]) was 130.

Work on COc1cc([C@@H]2c3cc4c(cc3[C@@H](O[C@@H]3O[C@@H]5CO[C@@H](C)O[C@H]5[C@H](O)[C@H]3O)[C@H]3COC(=O)[C@H]23)OCO4)cc(OC)c1O [ETOPOSIDE] yielded an IC50 (HCT-116 [1]) of 0.34 µg/mL (≈ 0.578 µM), an IC50 (HCT-116 [2]) of 1.78 µg/mL (≈ 3.02 µM) and a Ratio [7] of 5.2.
